The NIST ThermoML archive (doi:10.1021/je400531a)
“And” between values parts separate entries of the source, which are not always exact repeats. Equal entries are not always repeated.

Tests used:
[1] = refractive index (Na D-line) (dimensionless); details: 293.15 K; 101.33 kPa; Liquid; Standard Abbe refractometry
[2] = Liquid; for vapor or sublimation pressure: Ebulliometric method (Recirculating still); for mass density: 293.15 K, 101.33 kPa, Vibrating tube method

O [water]
Details | refractive index
[1] | 1.3312

[2]
Details | vapor or sublimation pressure
320.37 K | 10.74 kPa
324.33 K | 13.09 kPa
326.63 K | 14.66 kPa
328.29 K | 15.86 kPa
333.57 K | 20.33 kPa
340.16 K | 27.37 kPa
343.85 K | 32.16 kPa
345.44 K | 34.4 kPa
347.83 K | 38.07 kPa
349.4 K | 40.62 kPa
351.8 K | 44.82 kPa
354.68 K | 50.37 kPa
358.64 K | 58.91 kPa
361.08 K | 64.72 kPa
362.59 K | 68.63 kPa
367.87 K | 83.63 kPa
373.15 K | 101.31 kPa and 101.3 kPa

CC#N [acetonitrile]
Details | mass density [kg/m3] | refractive index
[1] | – | 1.3425
[2] | 782 | –

[2]
Details | vapor or sublimation pressure
307.22 K | 18.08 kPa
311.3 K | 21.45 kPa
314.05 K | 24 kPa
316.73 K | 26.73 kPa
320.8 K | 31.35 kPa
323.52 K | 34.82 kPa
325.8 K | 37.88 kPa
328.95 K | 42.59 kPa
330.5 K | 45.06 kPa
333.02 K | 49.34 kPa
335.2 K | 53.31 kPa
338.45 K | 59.68 kPa
341.17 K | 65.47 kPa
343.43 K | 70.59 kPa
346.6 K | 78.43 kPa
350.67 K | 89.46 kPa
354.75 K | 101.64 kPa and 101.3 kPa

C[S+](C)[O-] [dimethyl sulfoxide]
Details | mass density [kg/m3] | refractive index
[1] | – | 1.4751
[2] | 1101 | –

[2]
Details | vapor or sublimation pressure
401.95 K | 15.28 kPa
405.11 K | 17.11 kPa
408.75 K | 19.42 kPa
411.45 K | 21.32 kPa
414.6 K | 23.72 kPa
419.36 K | 27.76 kPa
421.15 K | 29.41 kPa
424.1 K | 32.35 kPa
430.45 K | 39.43 kPa
433.59 K | 43.43 kPa
436.75 K | 47.75 kPa
439.92 K | 52.42 kPa
442.85 K | 57.05 kPa
447.83 K | 65.75 kPa
455.74 K | 81.72 kPa
463.43 K | 101.3 kPa
463.45 K | 100.76 kPa and 101.3 kPa
